Data: patent US20120083647A1, “METHOD FOR CHANGING AN INDIVIDUAL'S STATE OF CONSCIOUSNESS” (priority 2010, published 2012)

How the values were obtained:
[1] = after LOC, continuous infusion of the drug
Procedure: After LOC was reached and neuroimaging completed at that level of anesthesia, those in the propofol infusion group had the infusion terminated and the subjects were allowed to emerge from anesthesia. During the emergence process, consciousness was tested at 1 min intervals until ROC was detected. ROC was defined as eye opening in response to the command to do so. […] PET measurements were thus obtained during the four conditions: baseline, sedation, LOC and ROC for 17 subjects.

[2] = healthy male volunteers, iv TCI; for subjects who lost consciousness at 75% of LOC: target 75% of individually determined LOC concentration; for subjects who lost consciousness at 100% of LOC: target 100% of individually determined LOC concentration; for subjects who lost consciousness at 125% of LOC: target 125% of individually determined LOC concentration
Procedure: Twenty volunteers (healthy, right-handed, 19 to 28 years old males) participated in this open, non-randomized study approved by the local ethics committee and the National Agency for Medicines. All subjects gave written informed consent. […] Subjects refrained from using alcohol or any medication for 48 hours before the study and they fasted overnight. No pre-medication was administered prior to study drug administration.
Subjects participated in two separate anesthesia sessions approximately one month apart. The first session was used to establish each subject's individual dose-response characteristics. The second session was used for neuroimaging. Subjects were anesthetized in a similar fashion on the two separate occasions. For each session, the subjects were prepared for the administration of a general anesthetic. In the first session, the individual concentrations for LOC were determined. Subjects were divided into two groups to receive either dexmedetomidine (n=10) or propofol (n=10) intravenous anesthesia via computer-controlled infusion. Once assigned to a particular anesthetic agent, that subject then again received that anesthetic during the neuroimaging session. Each infusion was started at a low rate and was then increased in a step-wise manner at 10 min intervals until LOC was detected. Consciousness was tested at 5 min intervals by asking the subjects to open their eyes. LOC was defined as being unresponsive to this request.
Dexmedetomidine (Precedex 100 μg/ml, Orion, 02200 Espoo, Finland) was administered intravenously using a target controlled infusion (TCI) scheme aiming at escalating pseudo steady-state plasma concentrations every 10 min. A Harvard 22 syringe pump (Harvard Apparatus, South Natick, Mass.) connected to a portable computer running […] software (Steven L. Schafer, M.D., Columbia University Medical Center, 622 W 168th St, PH 5-505 New York, N.Y. 10032-3725, USA) and the pharmacokinetic parameters of Talke were used (P. Talke et al., Anesthesiology 99, 65 (2003)). In the first session, the infusion was started at a target (plasma) concentration of 1.0 ng/ml, followed first by a 0.5 ng/ml target concentration increase and then by subsequent 0.25 ng/ml increases thereafter (i.e. 1.0-1.5-1.75-2.0-2.25-etc. ng/ml) until LOC was achieved.
Propofol (Propofol Lipuro 10 mg/ml, B. Braun Melsungen AG, Pfieffewiesen, D-34212 Melsungen, Germany) was administrated with the same infusion system and scheme as dexmedetomidine, using the Marsh pharmacokinetic model (B. Marsh et al., Br J Anaesth 67, 412 (1991)). In the first session, the infusion was started at a target (plasma) concentration of 1.0 μg/ml, followed first by a 0.5 μg/ml target concentration increase and then subsequent 0.25 μg/ml increases thereafter (i.e. 1.0-1.5-1.75-2.0-2.25-etc. μg/ml) until LOC was achieved.
In the second (neuroimaging) session of the study, the computer controlled drug infusion was repeated for each subject by aiming at their individually determined drug concentrations 50, 75 and 100% of the LOC concentration. Consciousness was tested similarly to the first session. If the LOC concentration defined in the first session of the study was not sufficient to produce LOC in the second session, the drug infusion was continued and an additional 25% target concentration increment was added to the rate. Concentrations were adjusted at 10 min intervals with simultaneous imaging at each level until LOC was detected.

Compound	restoration of consciousness by stimulation during drug infusion [1]	subjects who lost consciousness at 50% of the previously measured LOC concentration value ([2]; target 50% of individually determined LOC concentration)	subjects who lost consciousness at 75% of LOC [2]	subjects who lost consciousness at 100% of LOC [2]	subjects who lost consciousness at 125% of LOC [2]
Cc1cccc([C@H](C)c2cnc[nH]2)c1C [dexmedetomidine, Dexmedetomidine]	gentle tactile stimulation and/or loud voice was sufficient to restore consciousness	1	1	3	5
CC(C)c1cccc(C(C)C)c1O [propofol, Propofol]	–	–	2	6	1
